Counter-ions that a name gives are not always drawn. Like-named read-outs stand apart in the source and are kept apart here.
Experiments:
[1] = system: TGF-beta-induced phosphorylation of Smad2 (Ser465/467) and Smad3 (Ser423/425) in Mv1-Lu cells; test: Inhibition of Smad2/3 phosphorylation in Mv1Lu cells (PathScan Phospho-Smad2 ELISA); assay type: cell-based, mink Mustela vison; conditions: Neogale vison, read-out: TβR activity (Example 51)
Experimental: Inhibition of Smad2/3 Phosphorylation in Mv1 Lu Cells by TGF-Beta Receptor I Kinase Inhibitors
This assay was used to determine the inhibitory potency of compounds on TGF-beta-induced phosphorylation of Smad2 (Ser465/467) and Smad3 (Ser423/425). Mv1-Lu cells (lung epithelial cell line from mink Mustela vison; ATCC number: CCL-64) were seeded in DMEM (Invitrogen) supplemented with 10% fetal bovine serum (Pan Biotech) at a defined cell density in 24-well or 96-well plates (24-well plate: 1.5×10^5 cells per well; 96-well plate: 4×10^4 cells per well). Cell cultures were incubated in DMEM at 37° C. and 10% CO2. On the next day, the medium was replaced and cells were serum-starved for 16-20 hours. The following day, serial dilutions of compounds were added to the wells, pre-incubated for 1.5 hrs before recombinant TGF-beta 1 ligand (final concentration 5 ng/ml; R&D systems) was added. After one hour of ligand stimulation, lysates were prepared and analyzed using an enzyme-linked immunosorbent assay kit (PathScan Phospho-Smad2 Kit, Cell Signaling Technologies). The ELISA detects phosphorylated Smad2 as well as phosphorylated Smad3 with the phospho-specific antibody. TGF-beta stimulated cells and unstimulated cells served as positive and negative controls (100% and background control). The concentration of the vehicle DMSO was kept constant at 0.2% (v/v) in all wells. Dose-response relationships were fitted using curve fitting algorithms of the RS1 statistics software package (Brooks Automation Inc. RS/1- Statistical Tools Handbook. Release 6.2) to determine the concentration at which half-maximal inhibition (IC50) of Smad2/3 phosphorylation was achieved.

[2] = target: T1, GST-ALK5 (TGF-beta receptor kinase) (Homo sapiens, UniProt P36897); test: In-vitro (enzyme) kinase flashplate assay: GST-ALK5 phosphorylation of GST-SMAD2 with 33P-ATP; assay type: biochemical; conditions: 384-well flashplate kinase assay, GST-ALK5 / GST-SMAD2, 33P-ATP, 30° C., 45 min; read-out: TβR activity (Example 50)
T1 sequence (P36897 34-503): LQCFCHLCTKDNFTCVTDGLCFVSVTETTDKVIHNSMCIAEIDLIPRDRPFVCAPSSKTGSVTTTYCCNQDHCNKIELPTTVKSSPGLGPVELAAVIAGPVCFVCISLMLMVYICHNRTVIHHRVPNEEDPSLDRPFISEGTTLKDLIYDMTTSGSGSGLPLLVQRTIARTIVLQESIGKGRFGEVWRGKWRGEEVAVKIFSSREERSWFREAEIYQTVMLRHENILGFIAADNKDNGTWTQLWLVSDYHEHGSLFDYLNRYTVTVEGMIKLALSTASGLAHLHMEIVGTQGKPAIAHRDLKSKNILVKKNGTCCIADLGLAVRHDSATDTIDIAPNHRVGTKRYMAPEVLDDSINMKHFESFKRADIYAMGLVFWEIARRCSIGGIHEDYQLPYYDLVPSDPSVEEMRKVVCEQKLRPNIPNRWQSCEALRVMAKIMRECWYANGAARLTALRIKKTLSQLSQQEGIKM
Experimental: In-vitro (Enzyme) Assay for Determination of the Efficacy of Inhibitors of the Inhibition of TGF-Beta-Mediated Effects
The kinase assay was carried out as 384-well flashplate assay. 31.2 nM of GST-ALK5, 439 nM of GST-SMAD2 and 3 mM of ATP (with 0.3 μCi of ^33P-ATP/well) were incubated in a total volume of 35 μl (20 mM of HEPES, 10 mM of MgCl2, 5 mM of MnCl2, 1 mM of DTT, 0.1% of BSA, pH 7.4) without or with test substance (5-10 concentrations) at 30° C. for 45 min. The reaction was stopped using 25 μl of 200 mM EDTA solution, filtered with suction at room temperature after 30 min, and the wells were washed with 3 times 100 μl of 0.9% NaCl solution. Radioactivity was measured in the TopCount. The IC50 values were calculated using RS1.

[3] = Mv1-Lu cells, TGF-beta 1 5 ng/ml, Phospho-Smad2/3 ELISA

## Nc1nccc2c(-c3cc(-c4cc(Cl)ccc4F)nc4ncccc34)nccc12 [Compound 11, 5-[2-(5-Chloro-2-fluoro-phenyl)-[1,8]naphthyridin-4-yl]-[2,6]naphthyridin-1-ylamine]
[1]; [3]
  IC50: < 1000 nM
[2]
  IC50: < 1000 nM

## CCN(CC)CCOc1ccc(-c2cc(-c3cc(F)ccc3F)nc3ncccc23)c2ccncc12 [Compound 103, (2-{5-[2-(2,5-Difluoro-phenyl)-[1,8]naphthyridin-4-yl]-isoquinolin-8-yloxy}-ethyl)-diethyl-amine]
[1]; [3]
  IC50: < 1000 nM
[2]
  IC50: < 1000 nM

## COc1nnc(-c2cc(-c3ccccc3F)nc3ncccc23)c2ccncc12 [Compound 32, 1-[2-(2-Fluoro-phenyl)-[1,8]naphthyridin-4-yl]-4-methoxy-pyrido[3,4-d]pyridazine]
[1]; [3]
  IC50: > 10000 nM
[2]
  IC50: < 1000 nM

## Fc1ccc(Cl)cc1-c1cc(-c2coc3cnccc23)c2cccnc2n1 [Compound 12, 2-(5-Chloro-2-fluoro-phenyl)-4-furo[2,3-c]pyridin-3-yl-[1,8]naphthyridine]
[1]; [3]
  IC50: < 1000 nM
[2]
  IC50: < 1000 nM

## Nc1nccc2c(-c3cc(-c4c(F)cccc4F)nc4ncccc34)nccc12 [Compound 109, 5-[2-(2,6-Difluoro-phenyl)-[1,8]naphthyridin-4-yl]-[2,6]naphthyridin-1-ylamine]
[1]; [3]
  IC50: > 10000 nM
[2]
  IC50: < 1000 nM

## Fc1ccccc1-c1cc(-c2cccc3cnccc23)c2cccnc2n1 [Compound 19, 2-(2-Fluoro-phenyl)-4-isoquinolin-5-yl-[1,8]naphthyridine]
[1]; [3]
  IC50: < 1000 nM
[2]
  IC50: < 1000 nM

## CC(=O)Nc1ccc2cnccc2c1-c1cc(-c2ccccc2F)nc2ncccc12 [Compound 85, N-{5-[2-(2-Fluoro-phenyl)-[1,8]naphthyridin-4-yl]-isoquinolin-6-yl}-acetamide]
[1]; [3]
  IC50: > 10000 nM
[2]
  IC50: 1000 to 10000 nM

## Nc1nccc2c(-c3cc(-c4cc(F)ccc4F)nc4ncccc34)cccc12 [Compound 10, 5-[2-(2,5-Difluoro-phenyl)-[1,8]naphthyridin-4-yl]-isoquinolin-1-ylamine]
[1]; [3]
  IC50: < 1000 nM
[2]
  IC50: < 1000 nM

## COc1cnc(-c2cc(-c3ccccc3F)nc3ncccc23)c2ccncc12 [Compound 115, 2-(2-Fluoro-phenyl)-4-(4-methoxy-[2,6]naphthyridin-1-yl)-[1,8]naphthyridine]
[1]; [3]
  IC50: < 1000 nM
[2]
  IC50: < 1000 nM

## COCC(=O)Nc1nccc2c(-c3cc(-c4ccccc4F)nc4ncccc34)nccc12 [Compound 73, N-{5-[2-(2-Fluoro-phenyl)-[1,8]naphthyridin-4-yl]-[2,6]naphthyridin-1-yl}-2-methoxy-acetamide]
[1]; [3]
  IC50: 1000 to 10000 nM
[2]
  IC50: 1000 to 10000 nM

## O=c1cc(-c2cc(-c3cc(Cl)ccc3F)nc3ncccc23)c2ccncc2n1CCN1CCOCC1 [Compound 110, 4-[2-(5-Chloro-2-fluoro-phenyl)-[1,8]naphthyridin-4-yl]-1-(2-morpholin-4-yl-ethyl)-1H-[1,7]naphthyridin-2-one]
[1]; [3]
  IC50: > 10000 nM
[2]
  IC50: 1000 to 10000 nM

## [O-][n+]1ccc2c(-c3cc(-c4ccccc4F)nc4ncccc34)nccc2c1 [Compound 88, 2-(2-Fluoro-phenyl)-4-(6-oxy-[2,6]naphthyridin-1-yl)-[1,8]naphthyridine]
[1]; [3]
  IC50: > 10000 nM
[2]
  IC50: > 10000 nM

## Fc1ccc(Cl)cc1-c1cc(-c2cnc(OCCN3CCCC3)c3cnccc23)c2cccnc2n1 [Compound 100, 2-(5-Chloro-2-fluoro-phenyl)-4-[1-(2-pyrrolidin-1-yl-ethoxy)-[2,7]naphthyridin-4-yl]-[1,8]naphthyridine]
[1]; [3]
  IC50: < 1000 nM
[2]
  IC50: < 1000 nM

## Fc1ccc(C(F)(F)F)cc1-c1cc(-c2c[nH]c3cnccc23)c2cccnc2n1 [Compound 3, 2-(2-Fluoro-5-trifluoromethyl-phenyl)-4-(1H-pyrrolo[2,3-c]pyridin-3-yl)-[1,8]naphthyridine]
[1]; [3]
  IC50: < 1000 nM
[2]
  IC50: < 1000 nM

## Fc1ccc(Cl)cc1-c1cc(-c2cncc3ncccc23)c2cccnc2n1 [Compound 37, 5-[2-(5-Chloro-2-fluoro-phenyl)-[1,8]naphthyridin-4-yl]-[1,7]naphthyridine]
[1]; [3]
  IC50: 1000 to 10000 nM
[2]
  IC50: < 1000 nM

## Nc1nccc2c(-c3cc(-c4cc(F)ccc4F)nc4ncccc34)nccc12 [Compound 20, 5-[2-(2,5-Difluoro-phenyl)-[1,8]naphthyridin-4-yl]-[2,6]naphthyridin-1-ylamine hydrochloride]
[1]
  IC50: < 1000 nM
[2]
  IC50: < 1000 nM

## Fc1ccccc1-c1cc(-c2nccc3cnccc23)c2cccnc2n1 [Compound 23, 2-(2-Fluoro-phenyl)-4-[2,6]naphthyridin-1-yl-[1,8]naphthyridine]
[1]; [3]
  IC50: 1000 to 10000 nM
[2]
  IC50: 1000 to 10000 nM

## Cn1cc(-c2ccc(-c3cc(-c4ccccc4F)nc4ncccc34)c3ccncc23)cn1 [Compound 65, 2-(2-Fluoro-phenyl)-4-[8-(1-methyl-1H-pyrazol-4-yl)-isoquinolin-5-yl]-[1,8]naphthyridine]
[1]; [3]
  IC50: < 1000 nM
[2]
  IC50: < 1000 nM

## Cn1cc(-c2cc(-c3cc(Cl)ccc3F)nc3ncccc23)c2ccncc2c1=O [Compound 74, 4-[2-(5-Chloro-2-fluoro-phenyl)-[1,8]naphthyridin-4-yl]-2-methyl-2H-[2,7]naphthyridin-1-one]
[1]; [3]
  IC50: < 1000 nM
[2]
  IC50: < 1000 nM

## Cc1cccc(-c2cc(-c3cccc4c(N)nccc34)c3cccnc3n2)n1 [Compound 6, 5-[2-(6-Methyl-pyridin-2-yl)-[1,8]naphthyridin-4-yl]-isoquinolin-1-ylamine]
[1]; [3]
  IC50: < 1000 nM
[2]
  IC50: < 1000 nM

## Nc1nccc2c(-c3cc(-c4ccccc4F)nc4ncccc34)ccc(OCCO)c12 [Compound 79, 2-{1-Amino-5-[2-(2-fluoro-phenyl)-[1,8]naphthyridin-4-yl]-isoquinolin-8-yloxy}-ethanol]
[1]; [3]
  IC50: < 1000 nM
[2]
  IC50: < 1000 nM

## Nc1ccc(-c2cc(-c3cc(Cl)ccc3F)nc3ncccc23)c2ccncc12 [Compound 22, 5-[2-(5-Chloro-2-fluoro-phenyl)-[1,8]naphthyridin-4-yl]-isoquinolin-8-ylamine hydrochloride]
[1]
  IC50: < 1000 nM
[2]
  IC50: < 1000 nM

## Cc1cccc(-c2cc(-c3nccc4cnccc34)c3cccnc3n2)n1 [Compound 7, 2-(6-Methyl-pyridin-2-yl)-4-[2,6]naphthyridin-1-yl-[1,8]naphthyridine]
[1]; [3]
  IC50: 1000 to 10000 nM
[2]
  IC50: < 1000 nM

## Fc1ccc(Cl)cc1-c1cc(-c2nccc3cnccc23)c2cccnc2n1 [Compound 35, 2-(5-Chloro-2-fluoro-phenyl)-4-[2,6]naphthyridin-1-yl-[1,8]naphthyridine]
[1]; [3]
  IC50: < 1000 nM
[2]
  IC50: < 1000 nM

## CCN(CC)CCNc1ccc(-c2cc(-c3cc(Cl)ccc3F)nc3ncccc23)c2ccncc12 [Compound 92, N′-{5-[2-(5-Chloro-2-fluoro-phenyl)-[1,8]naphthyridin-4-yl]-isoquinolin-8-yl}-N,N-diethyl-ethane-1,2-diamine]
[1]; [3]
  IC50: < 1000 nM
[2]
  IC50: < 1000 nM

## Nc1ccc2cnccc2c1-c1cc(-c2ccccc2F)nc2ncccc12 [Compound 62, 5-[2-(2-Fluoro-phenyl)-[1,8]naphthyridin-4-yl]-isoquinolin-6-ylamine]
[1]; [3]
  IC50: 1000 to 10000 nM
[2]
  IC50: < 1000 nM

## O=c1[nH]cc(-c2cc(-c3cc(F)ccc3F)nc3ncccc23)c2ccncc12 [Compound 107, 4-[2-(2,5-Difluoro-phenyl)-[1,8]naphthyridin-4-yl]-2H-[2,7]naphthyridin-1-one]
[1]; [3]
  IC50: < 1000 nM
[2]
  IC50: < 1000 nM

Source: patent US8791113B2, “2,4-diaryl-substituted [1,8] naphthyridines as kinase inhibitors for use against cancer” (Merck Patent GmbH, priority 2010, dated 2014)
